Measurements as given in US20070292451A1, “Medical herb composition for promoting the growth of hair A mammal and the manufacturing method thereof” (Brion Research Institute of Taiwan, priority 2006, published 2007).

System: humans
Experiment: Oral administration of the medical herb composition to human volunteers with hair shedding
Format: in vivo
Conditions: Example 14: person
Description: The administered dose is based on body weight. For dogs and cats, the dose was 1-1.5 g/5 kg/day. […] because dogs and cats have higher metabolism rate than humans. […] The forehead hairline moved forward after one month, and generally the hair became thick. […] The efficacy of the composition is clearly identified by comparing the photo taken at the 37th day after the first administration of the composition (FIG. 8(b)) to that taken at 5th day (FIG. 8(a)). […] The test was performed on a volunteer, a person ([…]). […] They were diagnosed to suffer from Male Pattern Baldness. […] The efficacy of the composition is clearly identified by comparing the photo taken after the administration of the composition for 1 month (FIG. 9(b)) to that taken before the administration of the composition (FIG. 9(a)). […] In addition, after continuous administration of the composition for 1 month, their eyesight was 150 degree less than that before the administration of the composition.

## CC(C)(C)NC(=O)[C@H]1CC[C@H]2[C@@H]3CC[C@H]4NC(=O)C=C[C@]4(C)[C@H]3CC[C@]12C [Finasteride]
  effect on Male Pattern Baldness (earlier treatment of the subject): the effect was poor
